Laboratory results as given in PMC9404513 (ACS Omega, 2022).

How the values were obtained:
MAO-A = biological target: T1, MAO-A (Homo sapiens, UniProt P21397); assay: Monoamine oxidase A inhibition; type: biochemical
T1 sequence (P21397 1-527): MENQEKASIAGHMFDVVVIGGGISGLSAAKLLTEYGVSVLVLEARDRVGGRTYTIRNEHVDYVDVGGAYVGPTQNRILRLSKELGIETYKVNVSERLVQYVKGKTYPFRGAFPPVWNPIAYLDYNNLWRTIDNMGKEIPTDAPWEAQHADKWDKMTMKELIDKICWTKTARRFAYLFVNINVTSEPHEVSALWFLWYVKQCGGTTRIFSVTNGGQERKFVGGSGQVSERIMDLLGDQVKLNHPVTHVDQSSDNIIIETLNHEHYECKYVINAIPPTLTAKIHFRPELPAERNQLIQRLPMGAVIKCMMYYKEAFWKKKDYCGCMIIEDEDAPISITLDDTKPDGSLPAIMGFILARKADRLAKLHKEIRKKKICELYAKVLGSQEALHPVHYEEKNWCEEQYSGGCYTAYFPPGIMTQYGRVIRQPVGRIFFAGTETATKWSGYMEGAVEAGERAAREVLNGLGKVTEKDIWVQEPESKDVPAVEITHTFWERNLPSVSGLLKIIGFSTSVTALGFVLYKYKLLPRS

[1] = Solubility in organic solvents; type: physicochemical; details: solvents in which the compound is soluble
MAO-B = biological target: T2, MAO-B (Homo sapiens, UniProt P27338); assay: Monoamine oxidase B inhibition; type: biochemical
T2 sequence (P27338 1-520): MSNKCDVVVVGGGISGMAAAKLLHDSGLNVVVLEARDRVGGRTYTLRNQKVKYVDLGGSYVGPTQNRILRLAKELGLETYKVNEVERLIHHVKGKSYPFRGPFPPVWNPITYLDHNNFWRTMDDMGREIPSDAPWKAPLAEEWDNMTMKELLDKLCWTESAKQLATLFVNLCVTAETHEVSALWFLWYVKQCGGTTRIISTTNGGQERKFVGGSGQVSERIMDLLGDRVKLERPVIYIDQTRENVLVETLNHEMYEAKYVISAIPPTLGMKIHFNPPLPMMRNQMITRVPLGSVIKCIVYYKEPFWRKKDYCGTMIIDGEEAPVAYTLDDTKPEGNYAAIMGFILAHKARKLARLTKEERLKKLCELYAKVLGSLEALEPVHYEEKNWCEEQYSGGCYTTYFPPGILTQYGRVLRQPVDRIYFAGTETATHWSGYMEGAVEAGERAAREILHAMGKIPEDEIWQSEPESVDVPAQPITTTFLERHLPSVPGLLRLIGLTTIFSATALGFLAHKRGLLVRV

IC50 (MAO-A): 520 ± 30 nM
IC50 (MAO-B): 1020 ± 110 nM
SMILES: CCOC(=O)C1=C(Nc2ccc(F)cc2)CC(c2ccc(C(F)(F)F)cc2)N(c2ccc(F)cc2)C1c1ccc(C(F)(F)F)cc1 (stereo not drawn) [FTEAA, Ethyl 4-(4-fluorophenylamino)-2,6-bis(4-(trifluoromethyl)phenyl)-1-(4-fluoro-phenyl)-1,2,5,6-tetrahydropyridine-3-carboxylate]
solubility [1]: acetone, chloroform, dichloromethane, ethyl acetate and ethanol
